From ChEMBL document CHEMBL1135986, “Corrigendum to Synthesis and anti-angiogenic activity of 6-(1,2,4-thiadiazol-5-yl)-3-amino pyridazine derivatives [Bioorg. Med. Chem. Lett. 12 (2002) 589]” (Bioorg Med Chem Lett, 2002)

Experiments:
[1] = Ocular toxicity was assessed after oral dosing at 40 mg/Kg b.i.d. for 4 days in male Wistar rats; No; settings: rat, in vivo, 96 h
[2] = Ocular toxicity was assessed after oral dosing at 40 mg/Kg b.i.d. for 4 days in male Wistar rats; Yes; settings: rat, in vivo, 96 h
[3] = test system: Mus musculus; experiment: In vivo percentage inhibition of 3LL Lewis Lung tumor mets formation were measured after oral dosing b.i.d. for 28 days to B6D2F1 mice at a dose of 15 mg/kg b.i.d; assay type: functional; settings: 672 h
[4] = Ocular toxicity was assessed after oral dosing at 40 mg/Kg b.i.d. for 4 days in male Wistar rats; Very weak; settings: rat, in vivo, 96 h

Row | Compound | Eye toxicity [1] | Eye toxicity [2] | inhibition in vivo at 15 mg/kg [3] | other results
1 | Cc1nsc(-c2ccc(N3CCN(c4cccc(C(F)(F)F)c4)CC3)nc2)n1 | No toxicity | – | – | –
2 | Cc1nsc(-c2ccc(N3CCN(c4cc(C(F)(F)F)cc(C(F)(F)F)c4)CC3)nn2)n1 | – | Yes | – | –
3 | Cc1nsc(-c2ccc(N3CCN(c4cccc([N+](=O)[O-])c4)CC3)nn2)n1 | – | Yes | – | –
4 | Cc1nsc(-c2ccc(N3CCN(c4cccc(Cl)c4)CC3)nn2)n1 | – | Yes | – | –
5 | Cc1nsc(-c2ccc(N3CCN(c4cccc(C(F)(F)F)c4)CC3)nn2)n1 | – | Toxicity | – | –
6 | FC(F)(F)c1cccc(N2CCN(c3ccc(-c4ncns4)nn3)CC2)c1 | No toxicity | – | – | –
7 | Cc1nsc(-c2ccc(N3CCN(c4ccccc4C(F)(F)F)CC3)nn2)n1 | – | Yes | – | –
8 | Cc1nsc(-c2ccc(N3CCN(c4cc(Cl)cc(Cl)c4)CC3)nn2)n1 | – | Yes | – | –
9 | CN(C)c1nsc(-c2ccc(N3CCC(N4CCN(c5cccc(C(F)(F)F)c5)CC4)CC3)nn2)n1 | – | – | 25% | Eye toxicity [4]: Very weak toxicity
10 | CN(C)c1nsc(-c2ccc(N3CCN(c4cccc(C(F)(F)F)c4)CC3)nn2)n1 | No toxicity | – | 39% | –
11 | FC(F)(F)c1cccc(NC2CCN(c3ccc(-c4ncns4)nn3)CC2)c1 | No toxicity | – | 42% | –
12 | FC(F)(F)c1cc(N2CCN(c3ccc(-c4ncns4)nn3)CC2)cc(C(F)(F)F)c1 | No toxicity | – | 24% | –
13 | Cc1nsc(-c2nccc(N3CCN(c4cccc(C(F)(F)F)c4)CC3)n2)n1 | No toxicity | – | – | –
14 | Nc1nsc(-c2ccc(N3CCN(c4cccc(C(F)(F)F)c4)CC3)nn2)n1 | No toxicity | – | – | –
15 | CNc1nsc(-c2ccc(N3CCN(c4cccc(C(F)(F)F)c4)CC3)nn2)n1 | No toxicity | – | – | –
16 | CCc1nsc(-c2ccc(N3CCN(c4cccc(C(F)(F)F)c4)CC3)nn2)n1 | No toxicity | – | – | –
17 | CN(C)c1nsc(-c2ccc(N3CCN(c4cc(C(F)(F)F)cc(C(F)(F)F)c4)CC3)nn2)n1 | No toxicity | – | 13% | –
18 | FC(F)(F)c1cccc(N2CCN(C3CCN(c4ccc(-c5ncns5)nn4)CC3)CC2)c1 | No toxicity | – | 54% | –
19 | Cc1nsc(-c2ccc(N3CCN(c4cccc(C(F)(F)F)c4)CC3)cc2)n1 | No toxicity | – | – | –
